“And” between values parts separate entries of the source, which are not always exact repeats. Equal entries are not always repeated. Where two headings read alike, the source gives them in different places.

Data set [1] can be described thus: Safety / adverse events (NCI CTCAE) of intravenous citrulline in patients with sickle cell disease. The format is in vivo, human. On the procedure:
(§1) Background: Hemolysis associated nitric oxide (NO) depletion plays a central role in the pathogenesis of vaso-occlusion in sickle cell disease (SCD). Citrulline is an effective NO booster, even during conditions of inflammation and acute arginase-induced arginine deficiency, characteristic of SCD.
(§2) Methods: Each cohort of participants received an intravenous bolus of 20 mg/kg of citrulline over five minutes with dose increments of 10 mg/kg until a target plasma citrulline level of 80 to 100 μmol/L. FIG. 1. Plasma samples were collected at certain time points for pharmacokinetic studies. Adverse events were followed according to the NCI Common Terminology Criteria for Adverse Events (CTCAE).

The conditions of data set [2]: cited from earlier work.
For another data set, the system named is NO production. Conditions: acute arginase-induced arginine deficiency; cited from earlier work.
Data set [3] can be described thus: Plasma arginine level after intravenous bolus citrulline in patients with sickle cell disease. The format is in vivo, human. Conditions: within one hour of bolus intravenous citrulline 20 mg/kg; all subjects. The method, then:
as §2

Data set [4] can be described thus: Pharmacokinetics of intravenous bolus citrulline in patients with sickle cell disease. The class given is in vivo, human. Conditions: for clearance: iv. The method, then:
as §1, §2

A short description of data set [5]: Oral citrulline in ICU patients: reaching target citrulline level. Conditions: administered orally in an ICU. The class given is in vivo, human. An excerpt:
Oral administration of citrulline obligates the citrulline to pass through the gut and then the liver which removes the citrulline. This is due to the absorption of the citrulline from the gut and transport directly to the liver by the hepatic portal vein in the first pass through the patient's system. […] This would require multiple dosing regimen to achieve a therapeutic plasma level of citrulline. Thus, it is preferable for citrulline therapy to administer the active agent in a manner which bypasses the gut.

For data set [6] the following is noted: normal volunteers; cited from earlier work.
For data set [7] the following is noted: oral twice daily, approximately 0.1 g/kg daily, steady state, cited from earlier work.
For the next data set, the system named is NO formation. To be noted: oral arginine, cited from earlier work.
The conditions of data set [8]: children with VOC; cited from earlier work.
The conditions of data set [9]: inhaled, versus placebo; cited from earlier work.
Where [10] appears, read: bolus intravenous citrulline in patients with SCD.
Setting [11] is: Average of patients 1-4, 20 mg/kg intravenous bolus.
Where [12] appears, read: individual patients, 20 mg/kg intravenous bolus over 5 minutes, 20 mg/kg.

With `NC(=O)NCCCC(N)C(=O)O` (centres unmarked) [citrulline, 2-amino-5-(carbamoylamino)pentanoic acid], the other side effects entry in data set [1] (20 mg/kg intravenous bolus, four participants) is listed as “no other reported side effects”. Moreover, the safety and tolerability entry in data set [1] (setting [10]) was “safe and well tolerated”. The “transient drop of diastolic blood pressure” value in data set [1] (one subject, within 30 minutes of study drug, no intervention needed) was more than 20%. For the same molecule, the “safety and plasma citrulline levels” value in data set [2] (intravenous citrulline (Barr 2007)) is “may be administered safely to increase and maintain plasma citrulline levels”. For the same molecule, in data set [2] (oral citrulline (Smith 2006)), the “safety and plasma citrulline levels” value is “may be administered safely to increase and maintain plasma citrulline levels”. In the data set with NO production, the NO production entry was “increased NO production” and the microcirculatory flow entry is reported as “improved microcirculatory flow”. Also, the “rise in arginine level (mean increment)” value in data set [3] came out at 182%. Also, in data set [4] (setting [11]), the Krem was found to be 1.06 h⁻¹ and the V is on record as 0.50 L/kg. In data set [4] (setting [10]), the “clearance (in words)” value is “rapid clearance”. Further, in [4] (first cohort of four participants, intravenous bolus infusion of 20 mg/kg), the “mean peak level (plasma citrulline)” value is 259 µmol/L. Further, the clearance (usually a measure of how efficiently the substance is removed, as volume per time) in data set [4] (human, plasma, 20 mg/kg, Average of patients 1-4, 20 mg/kg intravenous bolus) is 8.67 mL/min/kg. The molecule also showed a clearance in data set [4] (human, plasma, 20 mg/kg, individual patients, 20 mg/kg intravenous bolus over 5 minutes) of 11.7 mL/min/kg. For the same molecule, the concentration at 4 h in [4] (human, plasma, 4 hours after the infusion, 20 mg/kg intravenous bolus, read-out: trough level (plasma citrulline)) lay within 20 to 40 µM. Moreover, in [4] (setting [12]), the CL was 8.5 mL/min/kg and 6.83 mL/min/kg and 7.67 mL/min/kg; the Krem is 1.01 1/hr (2×) and 1.34 1/hr and 0.89 1/hr; the V is 0.70 L/kg and 0.38 L/kg and 0.46 L/kg (2×). Besides, in data set [5], the “patients who met the target level of citrulline” value was 2 out of 3. Further, in [6], the “circulating arginine concentrations versus oral arginine” value is on record as “increases circulating arginine concentrations more than oral arginine”. Further, the symptoms of well-being entry in data set [7] (ages 10-18) was “dramatic improvements”. Further, in [7], the plasma arginine levels result was “raised plasma arginine levels”; the “total leukocyte and segmented neutrophil counts” value was “reductions in high total leukocyte and high segmented neutrophil counts toward or to within normal limits”.

On to `N=C(N)NCCC[C@H](N)C(=O)O` [arginine], for which the “increase of NO formation” value in the data set on NO formation (normal controls) was 68%. Moreover, in the data set with NO formation (steady-state SCD patients, not overcome by higher doses), the “change in NO” value was “paradoxical decrease in NO”. In data set [8], the pain scores entry is reported as “lowered pain scores” and the parenteral opioid use entry is on record as “reducing parenteral opioid use”. In addition, in the data set on NO production, the NO production result was “did not increase NO production”.

`[N]=O` [iNO, nitric oxide]: in [9], the “effect on time-to-resolution of vaso-occlusive crisis” value was “no effect”.

Values taken from patent US12329732B2, “Citrulline for treatment of sickle cell crisis” (Vanderbilt University, priority 2017, dated 2025).
